Measurements: patent US4394375A, “Cephalosporin derivatives, and compositions containing them” (Beecham Group Limited, priority 1980, dated 1983)
Converted amounts (≈) assume the structure as drawn. Like-named read-outs stand apart in the source and are kept apart here.

Experiments:
Assay type in all cases: cell-based
E. cloacae Nl = assay: MIC, E. cloacae Nl; settings: Enterobacter cloacae
K. aerogenes A = assay: MIC, K. aerogenes A; settings: Klebsiella aerogenes
E. coli JT 4 = assay: MIC, E. coli JT 4; settings: Escherichia coli, JT4
P. morganii = assay: MIC, P. morganii; settings: Morganella morganii
E. coli JT 425 = assay: MIC, E. coli JT 425; settings: Escherichia coli, JT425
P. mirabilis C 977 = assay: MIC, P. mirabilis C 977; settings: Proteus mirabilis, C977
Ps aeruginosa NCTC 10662 = assay: MIC, Ps aeruginosa NCTC 10662
P. rettgeri = assay: MIC, P. rettgeri; settings: Providencia rettgeri
S. marcescens US 32 = assay: MIC, S. marcescens US 32; settings: Serratia marcescens, US32
E. coli ESS = assay: MIC, E. coli ESS; settings: Escherichia coli
E. coli NCTC 10418 = assay: MIC, E. coli NCTC 10418; settings: Escherichia coli, NCTC10418
P. mirabilis 889 = assay: MIC, P. mirabilis 889; settings: Proteus mirabilis
Ps aeruginosa Dalgleish = assay: MIC, Ps aeruginosa Dalgleish; settings: Ps aeruginosa Dalgleish 10^-2
N. catarrhalis 1502 = assay: MIC, N. catarrhalis 1502
S. aureus Oxford = assay: MIC, S. aureus Oxford; settings: Staphylococcus aureus
S. aureus Russell = assay: MIC, S. aureus Russell; settings: Staphylococcus aureus
S. pyogenes CN 10 = assay: MIC, S. pyogenes CN 10; settings: Streptococcus pyogenes, CN10
S. faecalis I = assay: MIC, S. faecalis I; settings: Enterococcus faecalis
B. subtilis = assay: MIC, B. subtilis; settings: Bacillus subtilis
[1] = Ps aeruginosa NCTC 10662, read-out: MIC

Row | Structure (SMILES) | MIC (E. cloacae Nl) [µg/mL] | MIC (K. aerogenes A) [µg/mL] | MIC (E. coli JT 4) [µg/mL] | MIC (P. morganii) [µg/mL] | MIC (E. coli JT 425) [µg/mL] | MIC (P. mirabilis C 977) [µg/mL] | MIC (Ps aeruginosa NCTC 10662; Ps aeruginosa NCTC 10662 10^-2) [µg/mL] | MIC (Ps aeruginosa NCTC 10662; [1]) [µg/mL] | MIC (P. rettgeri) [µg/mL] | MIC (S. marcescens US 32) [µg/mL] | MIC (E. coli ESS) [µg/mL] | MIC (E. coli NCTC 10418) [µg/mL] | MIC (P. mirabilis 889) [µg/mL] | MIC (Ps aeruginosa Dalgleish) [µg/mL] | MIC (N. catarrhalis 1502) [µg/mL] | MIC (S. aureus Oxford) [µg/mL] | MIC (S. aureus Russell) [µg/mL] | MIC (S. pyogenes CN 10) [µg/mL] | MIC (S. faecalis I) [µg/mL] | MIC (B. subtilis) [µg/mL]
1 | CCN1CCN(C(=O)N[C@@H](C(=O)N[C@]2(CO)C(=O)N3C(C(=O)O)=C(CSc4nnnn4C)CS[C@@H]32)c2ccccc2)C(=O)C1=O [Example 4, 7β-[2(4-Ethyl-2,3-dioxopiperazine-1-carbonylamino)-2-phenylacetamido]-7α-hydroxymethyl-3-(1-methyl-1H-tetrazol-5-ylthio)methylceph-3-em-4-carboxylic acid] | 25 (≈ 37.9 µM) | 0.2 (≈ 0.303 µM) | 5 (≈ 7.58 µM) | 10 (≈ 15.2 µM) | 1 (≈ 1.52 µM) | 5 (≈ 7.58 µM) | > 100 | > 100 | 25 (≈ 37.9 µM) | 5 (≈ 7.58 µM) | < 0.02 | 1 (≈ 1.52 µM) | 2.5 (≈ 3.79 µM) | 100 (≈ 152 µM) | – | – | – | – | – | –
2 | CCN1CCN(C(=O)N[C@@H](C(=O)N[C@]2(CO)C(=O)N3C(C(=O)O)=C(COC(C)=O)CS[C@@H]32)c2ccccc2)C(=O)C1=O [Example 1d, Sodium 7β-[2(4-ethyl-2,3-dioxpiperazine-1-carbonylamino)]phenylacetamido-7α-hydroxymethylcephalosporanate] | 10 | 0.5 | 5 | 10 | 2.5 | 2.5 | > 100 | > 100 | 10 | 5 | < 0.02 | 2.5 | 1 | > 100 | 0.2 | > 100 | > 100 | 100 | > 100 | > 100
3 | CCN1CCN(C(=O)N[C@@H](C(=O)N[C@]2(CO)C(=O)N3C(C(=O)O)=C(COC(C)=O)CS[C@@H]32)c2ccc(O)cc2)C(=O)C1=O [Example 3b, Sodium 7β-[2-(4-ethyl-2,3-dioxopiperazine-1-carbonylamino)-2-(4-hydroxyphenyl)acetamido]-7α-hydroxymethylcephalosporanate] | 10 | 0.25 | 2.5 | 10 | 1 | 2.5 | 50 | 50 | 10 | 5 | 0.05 | 1 | 0.5 | 25 | 0.5 | > 100 | > 100 | > 100 | > 100 | > 100
